According to paper PMC5218480 (PLoS ONE, 2017):

Test system: MV-4-11 cells
Test: Gene expression microarray analysis (Affymetrix PrimeView) and GSEA
Type: cell-based, human
Design: RFU PODN (11730768_x_at) / Fold change /veh PODN (11730768_x_at) / RFU LINC00158 (11744669_a_at) / Fold change /veh LINC00158 (11744669_a_at) / RFU DUSP10 (11751237_a_at) / Fold change /veh DUSP10 (11751237_a_at) / RFU ID3 (11757404_x_at) / Fold change /veh ID3 (11757404_x_at) / RFU PLEKHG5 (11737974_s_at) / Fold change /veh PLEKHG5 (11737974_s_at) / RFU LRRC4B (11730491_at) / Fold change /veh LRRC4B (11730491_at) / RFU GIMAP4 (11747438_a_at) / Fold change /veh GIMAP4 (11747438_a_at) / RFU KRT8 (11758183_x_at) / Fold change /veh KRT8 (11758183_x_at) / RFU CNN1 (11734310_a_at) / Fold change /veh CNN1 (11734310_a_at) / RFU VPS37D (11726825_at) / Fold change /veh VPS37D (11726825_at) / RFU C10orf10 (11716522_x_at) / Fold change /veh C10orf10 (11716522_x_at) / RFU KIR2DL2 /// KIR2DL4 /// KIR2DL5A /// KIR2DL5B /// KIR2DS1 /// KIR2DS2 /// KIR2DS3 /// KIR2DS4 /// KIR3DL3 /// KIR3DL3 /// KIR3DS1 (11738374_at) / Fold change /veh KIR2DL2 /// KIR2DL4 /// KIR2DL5A /// KIR2DL5B /// KIR2DS1 /// KIR2DS2 /// KIR2DS3 /// KIR2DS4 /// KIR3DL3 /// KIR3DL3 /// KIR3DS1 (11738374_at) / RFU C1QL1 (11718748_at) / Fold change /veh C1QL1 (11718748_at) / RFU TMPRSS4 (11747572_a_at) / Fold change /veh TMPRSS4 (11747572_a_at) / RFU HAMP (11756126_x_at) / Fold change /veh HAMP (11756126_x_at) / RFU RNFT2 (11725882_a_at) / Fold change /veh RNFT2 (11725882_a_at) / RFU NR4A2 (11747474_a_at) / Fold change /veh NR4A2 (11747474_a_at) / RFU ABCC12 (11746883_a_at) / Fold change /veh ABCC12 (11746883_a_at) / RFU TMEM136 (11760407_x_at) / Fold change /veh TMEM136 (11760407_x_at) / RFU CLDN22 /// WWC2 (11732394_at) / Fold change /veh CLDN22 /// WWC2 (11732394_at) / RFU HLA-DPB1 (11760878_x_at) / Fold change /veh HLA-DPB1 (11760878_x_at) / RFU SPINT1 (11716480_a_at) / Fold change /veh SPINT1 (11716480_a_at) / RFU GAP43 (11754022_s_at) / Fold change /veh GAP43 (11754022_s_at) / RFU A4GNT (11735810_at) / Fold change /veh A4GNT (11735810_at) / RFU PRB3 (11715151_x_at) / Fold change /veh PRB3 (11715151_x_at) / RFU TUBB4B (11761932_at) / Fold change /veh TUBB4B (11761932_at) / RFU CAPN14 (11732068_a_at) / Fold change /veh CAPN14 (11732068_a_at) / RFU TMCC2 (11721928_a_at) / Fold change /veh TMCC2 (11721928_a_at) / RFU IRGQ (11745062_a_at) / Fold change /veh IRGQ (11745062_a_at) / RFU FAM174B (11720279_a_at) / Fold change /veh FAM174B (11720279_a_at) / RFU TMPRSS4 (11748680_a_at) / Fold change /veh TMPRSS4 (11748680_a_at) / RFU FAM212B (11763350_a_at) / Fold change /veh FAM212B (11763350_a_at) / RFU PLEKHG5 (11743358_a_at) / Fold change /veh PLEKHG5 (11743358_a_at) / RFU ZSCAN30 (11745921_a_at) / Fold change /veh ZSCAN30 (11745921_a_at) / RFU CMKLR1 (11741424_a_at) / Fold change /veh CMKLR1 (11741424_a_at) / RFU LOC101060620 /// MAPK8IP1 (11723275_at) / Fold change /veh LOC101060620 /// MAPK8IP1 (11723275_at) / RFU SPTSSB (11747773_x_at) / Fold change /veh SPTSSB (11747773_x_at) / RFU PRSS12 (11739890_at) / Fold change /veh PRSS12 (11739890_at) / RFU BIN1 (11741810_x_at) / Fold change /veh BIN1 (11741810_x_at) / RFU WNT11 (11732464_a_at) / Fold change /veh WNT11 (11732464_a_at) / RFU C10orf10 (11716521_a_at) / Fold change /veh C10orf10 (11716521_a_at) / RFU C5orf56 (11738089_at) / Fold change /veh C5orf56 (11738089_at) / RFU CYB561 (11721691_x_at) / Fold change /veh CYB561 (11721691_x_at) / RFU ANKRD19P (11752326_a_at) / Fold change /veh ANKRD19P (11752326_a_at) / RFU OR2T12 /// OR2T33 /// OR2T8 (11738714_s_at) / Fold change /veh OR2T12 /// OR2T33 /// OR2T8 (11738714_s_at) / RFU VCAN (11748164_a_at) / Fold change /veh VCAN (11748164_a_at) / RFU JSRP1 (11732532_at) / Fold change /veh JSRP1 (11732532_at) / RFU KRTAP10-11 (11738290_x_at) / Fold change /veh KRTAP10-11 (11738290_x_at) / RFU MYO3A (11730013_a_at) / Fold change /veh MYO3A (11730013_a_at) / RFU EBF3 (11725865_a_at) / Fold change /veh EBF3 (11725865_a_at) / RFU CAMK2N1 (11719241_x_at) / Fold change /veh CAMK2N1 (11719241_x_at) / RFU C5orf56 (11738088_a_at) / Fold change /veh C5orf56 (11738088_a_at) / RFU OLFML3 (11715873_a_at) / Fold change /veh OLFML3 (11715873_a_at) / RFU LOC100653217 /// NTM (11731650_a_at) / Fold change /veh LOC100653217 /// NTM (11731650_a_at) / RFU MAPK11 (11762145_a_at) / Fold change /veh MAPK11 (11762145_a_at) / RFU FIZ1 (11724087_x_at) / Fold change /veh FIZ1 (11724087_x_at) / RFU OASL (11726364_x_at) / Fold change /veh OASL (11726364_x_at) / RFU SOX15 (11748057_x_at) / Fold change /veh SOX15 (11748057_x_at) / RFU CD79A (11719716_a_at) / Fold change /veh CD79A (11719716_a_at) / RFU HIST1H1D (11736915_at) / Fold change /veh HIST1H1D (11736915_at) / RFU CASKIN2 (11723855_a_at) / Fold change /veh CASKIN2 (11723855_a_at) / RFU LOC730098 (11760151_x_at) / Fold change /veh LOC730098 (11760151_x_at) / RFU OR4N2 (11742367_at) / Fold change /veh OR4N2 (11742367_at) / RFU PRRT2 (11749266_a_at) / Fold change /veh PRRT2 (11749266_a_at) / RFU SNX32 (11753110_a_at) / Fold change /veh SNX32 (11753110_a_at) / RFU CDHR5 (11726645_a_at) / Fold change /veh CDHR5 (11726645_a_at) / RFU RCAN1 (11760418_a_at) / Fold change /veh RCAN1 (11760418_a_at) / RFU FAM167A (11723789_a_at) / Fold change /veh FAM167A (11723789_a_at) / RFU FAM26E (11764081_at) / Fold change /veh FAM26E (11764081_at) / RFU ISYNA1 (11749810_s_at) / Fold change /veh ISYNA1 (11749810_s_at) / RFU ACY1 (11761880_at) / Fold change /veh ACY1 (11761880_at) / RFU 11764098_at / Fold change /veh 11764098_at / RFU SAMD14 (11745864_x_at) / Fold change /veh SAMD14 (11745864_x_at) / RFU NPB (11741838_a_at) / Fold change /veh NPB (11741838_a_at) / RFU TMPRSS6 (11731388_a_at) / Fold change /veh TMPRSS6 (11731388_a_at) / RFU KRTAP10-2 (11738614_at) / Fold change /veh KRTAP10-2 (11738614_at) / RFU ARHGAP8 /// PRR5-ARHGAP8 (11727945_x_at) / Fold change /veh ARHGAP8 /// PRR5-ARHGAP8 (11727945_x_at) / RFU KRTAP5-7 /// NADSYN1 (11734609_at) / Fold change /veh KRTAP5-7 /// NADSYN1 (11734609_at) / RFU RASL12 (11751679_a_at) / Fold change /veh RASL12 (11751679_a_at) / RFU CDKN2B (11736163_a_at) / Fold change /veh CDKN2B (11736163_a_at) / RFU PRF1 (11729649_at) / Fold change /veh PRF1 (11729649_at) / RFU, ZNF638 /// ZNF638-IT1 / Fold change vs veh, ZNF638 /// ZNF638-IT1 / RFU, PANK3 / Fold change vs veh, PANK3 / RFU, SH3YL1 / Fold change vs veh, SH3YL1 / RFU, ZEB2 / Fold change vs veh, ZEB2 / RFU, NRIP1 / Fold change vs veh, NRIP1 / RFU, PTTG1IP / Fold change vs veh, PTTG1IP / RFU, CAPN2 / Fold change vs veh, CAPN2 / RFU, MED14 / Fold change vs veh, MED14 / RFU, SNORA58 / Fold change vs veh, SNORA58 / RFU, C1orf63 / Fold change vs veh, C1orf63 / RFU, LRRFIP1 / Fold change vs veh, LRRFIP1 / RFU, NDUFAF7 / Fold change vs veh, NDUFAF7 / RFU, SLC12A2 / Fold change vs veh, SLC12A2 / RFU, IBTK / Fold change vs veh, IBTK / RFU, ESF1 / Fold change vs veh, ESF1 / Fold change vs veh, TMEM50B / RFU, TAOK1 / Fold change vs veh, TAOK1 / RFU, ACBD3 / Fold change vs veh, ACBD3 / RFU, TMA16 / Fold change vs veh, TMA16 / RFU, RWDD3 / Fold change vs veh, RWDD3 / RFU, BCAT1 / Fold change vs veh, BCAT1 / RFU, EDEM3 / Fold change vs veh, EDEM3 / RFU, TMEM33 / Fold change vs veh, TMEM33 / RFU, WDR75 / Fold change vs veh, WDR75 / RFU, AHCTF1 / Fold change vs veh, AHCTF1 / RFU, TFRC / Fold change vs veh, TFRC / RFU, ZDHHC17 / Fold change vs veh, ZDHHC17 / RFU, NOM1 / Fold change vs veh, NOM1 / RFU, ARL8B / Fold change vs veh, ARL8B / RFU, ZBTB11 / Fold change vs veh, ZBTB11 / RFU, TAMM41 / Fold change vs veh, TAMM41 / RFU, KIAA1704 /// LOC100996395 / Fold change vs veh, KIAA1704 /// LOC100996395 / RFU, ING1 / Fold change vs veh, ING1 / RFU, TRMT61B / Fold change vs veh, TRMT61B / RFU, FUBP3 / Fold change vs veh, FUBP3 / RFU, TP53 / Fold change vs veh, TP53 / RFU, TNKS2 / Fold change vs veh, TNKS2 / RFU, ZFP14 / Fold change vs veh, ZFP14 / RFU, ACTR2 / Fold change vs veh, ACTR2 / RFU, PPP3R1 / Fold change vs veh, PPP3R1 / RFU, PIK3R1 / Fold change vs veh, PIK3R1 / RFU, HNRNPA1 / Fold change vs veh, HNRNPA1 / RFU, RNF170 / Fold change vs veh, RNF170 / RFU, ZNF28 / Fold change vs veh, ZNF28 / RFU, RNGTT / Fold change vs veh, RNGTT / RFU, OGT / Fold change vs veh, OGT / RFU, BRD1 / Fold change vs veh, BRD1 / RFU, MARS / Fold change vs veh, MARS / RFU, ZNF655 / Fold change vs veh, ZNF655 / RFU, FAHD1 / Fold change vs veh, FAHD1 / RFU, BDP1 / Fold change vs veh, BDP1 / RFU, LRRCC1 / Fold change vs veh, LRRCC1 / RFU, ARID1A / Fold change vs veh, ARID1A / RFU, ZNF146 / Fold change vs veh, ZNF146 / RFU, ZNF330 / Fold change vs veh, ZNF330 / RFU, GPN3 / Fold change vs veh, GPN3 / RFU, C9orf123 / Fold change vs veh, C9orf123 / RFU, N4BP2L2 / Fold change vs veh, N4BP2L2 / RFU, ARFIP1 / Fold change vs veh, ARFIP1 / RFU, FAM179B / Fold change vs veh, FAM179B / RFU, BCL10 / Fold change vs veh, BCL10 / RFU, UHRF1BP1L / Fold change vs veh, UHRF1BP1L / RFU, BET1 / Fold change vs veh, BET1 / RFU, CNOT2 / Fold change vs veh, CNOT2 / RFU, ZNF268 / Fold change vs veh, ZNF268 / Fold change vs veh, ZNF507 / RFU, DGCR2 / Fold change vs veh, DGCR2 / RFU, WDSUB1 / Fold change vs veh, WDSUB1 / Fold change vs veh, HSP90B1 /// MIR3652 / RFU, ADSS / Fold change vs veh, ADSS / RFU, GK / Fold change vs veh, GK / RFU, ZNF148 / Fold change vs veh, ZNF148 / RFU, TAF9 / Fold change vs veh, TAF9 / RFU, SLC1A5 / Fold change vs veh, SLC1A5 / RFU, SLMO2 / Fold change vs veh, SLMO2 / RFU, ABCC4 / Fold change vs veh, ABCC4 / RFU, LOC101060439 /// RAP1B / Fold change vs veh, LOC101060439 /// RAP1B / RFU, RFX7 / Fold change vs veh, RFX7 / RFU, GTPBP10 / Fold change vs veh, GTPBP10 / RFU, CNEP1R1 / Fold change vs veh, CNEP1R1 / RFU, BIVM-ERCC5 /// ERCC5 / Fold change vs veh, BIVM-ERCC5 /// ERCC5 / RFU, ILF3 / Fold change vs veh, ILF3 / RFU 11762660_at / Fold change /veh 11762660_at / RFU VCAN (11757783_s_at) / Fold change /veh VCAN (11757783_s_at) / RFU DDX43 (11728927_at) / Fold change /veh DDX43 (11728927_at) / RFU KRT8 (11758188_x_at) / Fold change /veh KRT8 (11758188_x_at) / RFU NKD1 (11759106_at) / Fold change /veh NKD1 (11759106_at) / RFU SRD5A1 (11742802_a_at) / Fold change /veh SRD5A1 (11742802_a_at) / RFU TPSAB1 /// TPSB2 (11721975_s_at) / Fold change /veh TPSAB1 /// TPSB2 (11721975_s_at) / RFU GSTM3 (11746129_a_at) / Fold change /veh GSTM3 (11746129_a_at) / RFU IL23R (11737362_x_at) / Fold change /veh IL23R (11737362_x_at) / RFU TMEM51 (11727254_a_at) / Fold change /veh TMEM51 (11727254_a_at) / RFU PIWIL2 (11732686_x_at) / Fold change /veh PIWIL2 (11732686_x_at) / RFU ORM1 (11744905_x_at) / Fold change /veh ORM1 (11744905_x_at) / RFU CCDC152 (11743942_at) / Fold change /veh CCDC152 (11743942_at) / RFU ECM1 (11717891_a_at) / Fold change /veh ECM1 (11717891_a_at) / RFU IL23R (11748794_a_at) / Fold change /veh IL23R (11748794_a_at) / RFU TNFAIP8L3 (11732012_x_at) / Fold change /veh TNFAIP8L3 (11732012_x_at) / RFU MBOAT4 (11741988_at) / Fold change /veh MBOAT4 (11741988_at) / RFU 11764193_at / Fold change /veh 11764193_at / RFU TMEM53 (11763286_at) / Fold change /veh TMEM53 (11763286_at) / RFU MAGEB2 (11727129_at) / Fold change /veh MAGEB2 (11727129_at) / RFU TMEM200A (11744735_a_at) / Fold change /veh TMEM200A (11744735_a_at) / RFU CCDC152 (11751479_a_at) / Fold change /veh CCDC152 (11751479_a_at) / RFU FAM211A (11726209_a_at) / Fold change /veh FAM211A (11726209_a_at) / RFU RGS16 (11746705_a_at) / Fold change /veh RGS16 (11746705_a_at) / RFU VCAN (11755009_s_at) / Fold change /veh VCAN (11755009_s_at) / RFU RHOB (11743442_s_at) / Fold change /veh RHOB (11743442_s_at) / RFU RGS16 (11720943_a_at) / Fold change /veh RGS16 (11720943_a_at) / RFU RGS16 (11720944_at) / Fold change /veh RGS16 (11720944_at) / RFU, VPS4B / Fold change vs veh, VPS4B / RFU, CREB1 / Fold change vs veh, CREB1 / RFU, DNAJC13 / Fold change vs veh, DNAJC13 / RFU, GNAQ / Fold change vs veh, GNAQ / RFU, CDK5R1 / Fold change vs veh, CDK5R1 / RFU, ZRANB3 / Fold change vs veh, ZRANB3 / RFU, CUL4A / Fold change vs veh, CUL4A / RFU, CCNY / Fold change vs veh, CCNY / RFU, UFL1 / Fold change vs veh, UFL1 / RFU, COG3 / Fold change vs veh, COG3 / RFU, DIAPH2 / Fold change vs veh, DIAPH2 / RFU, SKA2 / Fold change vs veh, SKA2 / RFU, AFF3 / Fold change vs veh, AFF3 / RFU, LMF1 / Fold change vs veh, LMF1 / RFU, IPO11 / Fold change vs veh, IPO11 / RFU, DFFB / Fold change vs veh, DFFB / RFU, FOXP1 / Fold change vs veh, FOXP1 / RFU, CARD8 / Fold change vs veh, CARD8 / RFU, STRN3 / Fold change vs veh, STRN3 / RFU, ADK / Fold change vs veh, ADK / RFU, RASSF2 / Fold change vs veh, RASSF2 / RFU, WIPF1 / Fold change vs veh, WIPF1 / RFU, LARP1B / Fold change vs veh, LARP1B / RFU, RASA1 / Fold change vs veh, RASA1 / RFU, RB1 / Fold change vs veh, RB1 / RFU, PPFIA1 / Fold change vs veh, PPFIA1 / RFU, MAT2A / Fold change vs veh, MAT2A / RFU, CCT5 / Fold change vs veh, CCT5 / RFU, WDR92 / Fold change vs veh, WDR92 / RFU, CUX1 / Fold change vs veh, CUX1 / RFU, TTC7A / Fold change vs veh, TTC7A / RFU, TMEM135 / Fold change vs veh, TMEM135 / RFU, DEPTOR / Fold change vs veh, DEPTOR / RFU, CPM / Fold change vs veh, CPM / RFU, DNAJB6 / Fold change vs veh, DNAJB6 / RFU, CACNA2D3 / Fold change vs veh, CACNA2D3 / RFU, DTX4 / Fold change vs veh, DTX4 / RFU, TFCP2 / Fold change vs veh, TFCP2 / RFU, GMCL1 /// GMCL1P1 / Fold change vs veh, GMCL1 /// GMCL1P1 / RFU, AEBP2 / Fold change vs veh, AEBP2 / RFU, SNHG1 /// SNORD22 /// SNORD25 /// SNORD26 /// SNORD27 /// SNORD28 /// SNORD29 /// SNORD31 / Fold change vs veh, SNHG1 /// SNORD22 /// SNORD25 /// SNORD26 /// SNORD27 /// SNORD28 /// SNORD29 /// SNORD31 / Fold change (Aza/veh), C12orf56 (ProbeSet 11735607_a_at) / Fold change (ACY-1035/veh), C12orf56 (ProbeSet 11735607_a_at) / Fold change (Aza/veh), FGFR1OP (ProbeSet 11751329_s_at) / Fold change (ACY-1035/veh), FGFR1OP (ProbeSet 11751329_s_at) / Fold change (Aza/veh), VPS36 (ProbeSet 11739960_a_at) / Fold change (ACY-1035/veh), VPS36 (ProbeSet 11739960_a_at) / RFU SYPL1 (11715823_x_at) / Fold change /veh SYPL1 (11715823_x_at) / RFU IGFBP7 (11715501_s_at) / Fold change /veh IGFBP7 (11715501_s_at) / RFU REEP3 (11722064_at) / Fold change /veh REEP3 (11722064_at) / RFU IGLL1 (11728026_x_at) / Fold change /veh IGLL1 (11728026_x_at): dose or concentration left out as unconfirmed
Settings: MV-4-11 cells, 48 hours

Compound: Nc1ccc(-c2cccs2)cc1NC(=O)c1ccc2c(c1)cc(C1CC1)n2CCN1CCOCC1 [ACY-1035]
- RFU DUSP10 (11751237_a_at): 30.58 RFU
